# Laboratory results published in ChEMBL document CHEMBL1156825, “Design, synthesis, and docking studies of novel benzimidazoles for the treatment of metabolic syndrome” (J Med Chem, 2010).
# Calls of active or inactive are those of the source. No cut-off for these calls is given here.
# What was measured:
# [1] = target: T1, Type-1 angiotensin II receptor A (Rattus norvegicus, UniProt P25095); assay: Displacement of [125I]SI-Ang2 from AT1 receptor in Sprague-Dawley rat liver membrane; assay type: cell membranes
# T1 sequence (P25095 whole entry): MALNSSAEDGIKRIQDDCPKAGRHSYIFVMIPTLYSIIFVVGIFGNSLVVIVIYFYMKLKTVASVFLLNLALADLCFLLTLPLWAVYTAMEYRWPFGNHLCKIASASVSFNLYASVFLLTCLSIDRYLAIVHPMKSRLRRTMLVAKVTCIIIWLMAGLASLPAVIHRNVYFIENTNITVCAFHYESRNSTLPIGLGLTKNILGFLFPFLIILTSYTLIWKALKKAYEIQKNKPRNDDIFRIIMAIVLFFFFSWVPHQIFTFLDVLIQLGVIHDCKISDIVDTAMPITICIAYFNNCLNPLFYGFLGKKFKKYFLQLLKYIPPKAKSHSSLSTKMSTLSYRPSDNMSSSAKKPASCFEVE
# [2] = target: T2, Peroxisome proliferator-activated receptor gamma (Homo sapiens) (UniProt P37231); assay: Agonist activity at human recombinant PPARgamma expressed in CV1 cells coexpressing GAL4 assessed as receptor transactivation at 10 uM by luciferase reporter gene assay relative to full agonist; assay type: functional, cell-based; settings: CV-1
# T2 sequence (whole entry): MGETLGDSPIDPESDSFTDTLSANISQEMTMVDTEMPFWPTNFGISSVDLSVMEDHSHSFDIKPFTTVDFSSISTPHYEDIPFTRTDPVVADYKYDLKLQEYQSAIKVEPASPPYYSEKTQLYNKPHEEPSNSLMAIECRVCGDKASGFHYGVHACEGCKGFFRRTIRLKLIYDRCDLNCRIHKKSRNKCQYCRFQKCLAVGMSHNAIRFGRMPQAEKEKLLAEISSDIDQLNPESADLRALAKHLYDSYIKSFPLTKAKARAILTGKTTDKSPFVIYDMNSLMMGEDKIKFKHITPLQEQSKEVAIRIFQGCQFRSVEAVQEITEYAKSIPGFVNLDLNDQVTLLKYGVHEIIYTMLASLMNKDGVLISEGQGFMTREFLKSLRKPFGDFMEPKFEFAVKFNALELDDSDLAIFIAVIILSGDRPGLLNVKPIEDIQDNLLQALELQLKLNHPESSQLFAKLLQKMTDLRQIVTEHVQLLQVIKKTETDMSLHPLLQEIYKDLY
# [3] = target: T3, Peroxisome proliferator-activated receptor alpha (Homo sapiens) (UniProt Q07869); assay: Agonist activity at PPARalpha assessed as receptor transactivation by reporter gene assay relative to control; assay type: functional
# T3 sequence (whole entry): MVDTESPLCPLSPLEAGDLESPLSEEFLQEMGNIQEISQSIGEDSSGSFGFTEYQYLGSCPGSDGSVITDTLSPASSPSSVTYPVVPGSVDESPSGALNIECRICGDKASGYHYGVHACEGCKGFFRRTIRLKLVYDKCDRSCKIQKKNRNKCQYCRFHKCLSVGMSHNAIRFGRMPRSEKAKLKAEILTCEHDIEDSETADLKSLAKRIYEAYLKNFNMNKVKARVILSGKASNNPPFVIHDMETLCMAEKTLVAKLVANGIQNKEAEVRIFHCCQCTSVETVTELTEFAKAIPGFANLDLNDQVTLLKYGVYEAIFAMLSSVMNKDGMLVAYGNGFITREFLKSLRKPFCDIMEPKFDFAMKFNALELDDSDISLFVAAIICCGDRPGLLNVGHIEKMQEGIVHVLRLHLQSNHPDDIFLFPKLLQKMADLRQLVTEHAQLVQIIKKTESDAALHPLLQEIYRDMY
# [4] = target: Peroxisome proliferator-activated receptor alpha (Homo sapiens) (UniProt Q07869); assay: Agonist activity at human recombinant PPARalpha expressed in CV1 cells coexpressing GAL4 assessed as receptor transactivation at 10 µM by luciferase reporter gene assay relative to full agonist; settings: CV-1
# [5] = target: T4, Peroxisome proliferator-activated receptor alpha (Homo sapiens, UniProt Q07869); assay: Agonist activity at PPARalpha assessed as receptor transactivation by reporter gene assay; assay type: functional
# T4 sequence (Q07869 whole entry): T3 sequence (whole entry)
Ki [1] [nM],Activity [2],Activity [3] [%],Activity [4] [%],EC50 [5] [nM],Compound
1620,inactive,,,,CCCc1nc2c(C)cc(-c3nc4ccccc4n3C)cc2n1CCOc1ccc(CCc2nnn[nH]2)cc1
,21.9%,,,,CCCc1nc2c(C)cc(-c3nc4ccccc4n3C)cc2n1Cc1ccc(-c2ccccc2C(=O)O)cc1
2230,12%,,,,CCCc1nc2c(C)cc(-c3nc4ccccc4n3C)cc2n1CCOc1ccc(CC(C)(Oc2ccccc2)C(=O)O)cc1 (centres undefined)
> 10000,,,,,CCCc1nc2c(C)cccc2n1Cc1ccc(OCC(=O)OCC)cc1
2530,29%,15,15,,CCCc1nc2c(C)cc(-c3nc4ccccc4n3C)cc2n1CCOc1ccc(CC(C)(Oc2ccccc2)C(=O)OCC)cc1 (centres undefined)
> 10000,21%,,,,CCCc1nc2c(C)cccc2n1Cc1ccc(OC(C)(C)C(=O)OCC)cc1
13.4,inactive,,,,CCCc1nc2c(C)cc(-c3nc4ccccc4n3C)cc2n1Cc1ccc(CCc2nnn[nH]2)cc1
> 10000,4%,,,,CCCc1nc2c(C)cccc2n1Cc1ccc(/C=C/C(=O)OCC)cc1
2840,inactive,,,,CCCc1nc2c(C)cccc2n1Cc1ccc(CCc2nnn[nH]2)cc1
> 10000,10%,,,,CCCc1nc2c(C)cccc2n1CCOc1ccc(CC(C)(C)C(=O)OCC)cc1
> 10000,2%,,,,CCCc1nc2c(C)cccc2n1Cc1ccc(CCC(=O)OC)cc1
5060,inactive,,,,CCCc1nc2c(C)cccc2n1Cc1ccc(OCc2nnn[nH]2)cc1
> 10000,69%,93,93,300,CCCc1nc2c(C)cccc2n1CCOc1ccc(CC(C)(Oc2ccccc2)C(=O)OCC)cc1 (centres undefined)
